According to patent US11034648B2, “Cystobactamide derivatives” (priority 2017, dated 2021):
pIC50: −log10 of the molar value.

Key:
E. coli gyrase = target: T1, E. coli gyrase (Escherichia coli, UniProt P0AES4+P0AES6); assay: E. coli gyrase supercoiling (sc) assay; assay type: biochemical; settings: supercoiling assay kit, agarose gel quantification; read-out: Ec gyrase sc IC50
T1 construct: purchased Inspiralis
Procedure: The target activity on E. coli gyrase was assessed as described in Baumann et al., Angew Chem Int Ed Engl. 2014; 53(52):14605-9 using a commercial supercoiling (sc) assay kit from Inspiralis according to the manufacturer's instructions. The samples were separated on 0.8% (w/v) agarose gels and relaxed and supercoiled plasmid was visualized by ethidium bromide staining. Half-inhibitory concentrations (IC50) were calculated after image analysis and quantification (ImageJ) based on sigmoidal curve fitting (OriginPro).

C. freundii = assay: MIC, microbroth dilution susceptibility assay (Table 2b); assay type: cell-based; settings: larger panel
Procedure: (§1) Cystobactamid derivatives synthesized were tested against relevant Gram negative and positive bacteria of clinical interest. Experimental procedures used for the biological characterization of the compounds are the same as previously described in WO 2016/082934.
(§2) Bacterial strains used in susceptibility assays (minimum inhibitory concentration, MIC) were either part of our internal strain collection or purchased from the German Collection of Microorganisms and Cell Cultures (Deutsche Sammlung von Mikroorganismen und Zellkulturen, DSMZ) and the American Type Culture Collection (ATCC). The susceptible E. coli strain (WT) and fluoroquinolone-resistant mutants E. coli WT-3 and WT-III were kindly provided by Prof Dr. P. Heisig, Pharmaceutical Biology and Microbiology, University of Hamburg, Germany. The efflux-deficient strain P. aeruginosa ΔmexAB was kindly provided by Prof Dr. S. Häußler, Institute for Molecular Bacteriology, TWINCORE, Hannover, Germany. All compounds were prepared as DMSO stocks and MIC values were determined in standard microbroth dilution assays in 96-well MTPs as described in Baumann et al., Angew Chem Int Ed Engl. 2014; 53(52):14605-9. In brief, overnight cultures of bacteria were diluted in either tryptic soy broth (TSB: 1.7% peptone casein, 0.3% peptone soymeal, 0.25% glucose, 0.5% NaCl, 0.25% K2HPO4; pH 7.3; S. pneumoniae and E. faecalis) or cation-adjusted Müller-Hinton Broth (BBL™, BD; all other bacteria) and adjusted to 10^4-10^6 cfu/mL. Bacteria were grown in the presence of the derivatives in serial dilution for approx. 16 h at 30-37° C. MIC values were determined and were defined as the antibiotic concentration at which no visual growth of bacteria was observed.

A. baumannii = assay: as above; assay type: cell-based; settings: larger panel
Procedure: as §1, §2

S. marcescens = assay: as above; assay type: cell-based; settings: larger panel
Procedure: as §1, §2

P. aeruginosa ESBL 1 = assay: as above; assay type: cell-based; settings: larger panel
Procedure: as §1, §2

K. pneumoniae = assay: as above; assay type: cell-based; settings: larger panel
Procedure: as §1, §2

E. cloacae = assay: as above; assay type: cell-based; settings: larger panel
Procedure: as §1, §2

E. aerogenes = assay: as above; assay type: cell-based; settings: larger panel
Procedure: as §1, §2

S. epidermidis = assay: as above; assay type: cell-based; settings: larger panel
Procedure: as §1, §2

P. aeruginosa ESBL 2 = assay: as above; assay type: cell-based; settings: larger panel
Procedure: as §1, §2

P. vulgaris = assay: as above; assay type: cell-based; settings: larger panel
Procedure: as §1, §2

P. mirabilis = assay: as above; assay type: cell-based; settings: larger panel
Procedure: as §1, §2

E. faecalis = assay: as above; assay type: cell-based; settings: larger panel
Procedure: as §1, §2

E. coli ΔtolC = assay: microbe, parasite or virus in culture; assay type: cell-based; settings: small panel, Tables 1a/1b; no visual growth after approx. 16 h
How it was run: (§3)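 Inoculum: 10^4-10^6 cfu/mL from overnight culture. Medium: cation-adjusted Müller-Hinton broth. Incubation: approx. 16 h, 30-37° C. Read-out: visual, MIC at no growth.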

[1] = system: E. coli WT-3 [gyrA(S83L,D87G)]; assay: microbe, parasite or virus in culture; assay type: cell-based
How it was run: as §3

P. aeruginosa ΔmexAB = assay: microbe, parasite or virus in culture; assay type: cell-based; settings: efflux-deficient strain; small panel, Tables 1a/1b
How it was run: as §3

P. aeruginosa WT PA14 = assay: MIC, microbroth dilution susceptibility assay; assay type: cell-based; settings: small panel, Tables 1a/1b
How it was run: as §3

E. aerogenes DSM-30053 = assay: MIC, microbroth dilution susceptibility assay; assay type: cell-based; settings: large panel, Table 2a
How it was run: as §3

K. pneumoniae DSM-30104 = assay: MIC, microbroth dilution susceptibility assay; assay type: cell-based; settings: large panel, Table 2a
How it was run: as §3

P. aeruginosa DSM-46316 = assay: MIC, microbroth dilution susceptibility assay; assay type: cell-based; settings: large panel, Table 2a
How it was run: as §3

P. mirabilis DSM-2140 = assay: MIC, microbroth dilution susceptibility assay; assay type: cell-based; settings: large panel, Table 2a
How it was run: as §3

S. aureus ATCC-29213 = assay: MIC, microbroth dilution susceptibility assay; assay type: cell-based; settings: large panel, Table 2a
How it was run: as §3

C. freundii DSM-30039 = assay: MIC, microbroth dilution susceptibility assay; assay type: cell-based; settings: large panel, Table 2a
How it was run: as §3

E. coli WT = assay: MIC, microbroth dilution susceptibility assay; assay type: cell-based
How it was run: as §3

S. pneumoniae DSM-20566 = assay: MIC, microbroth dilution susceptibility assay; assay type: cell-based; settings: large panel, Table 2a; TSB
How it was run: as §3

E. cloacae DSM-30054 = assay: MIC, microbroth dilution susceptibility assay; assay type: cell-based; settings: large panel, Table 2a
How it was run: as §3

S. epidermidis DSM-28765 = assay: MIC, microbroth dilution susceptibility assay; assay type: cell-based; settings: large panel, Table 2a
How it was run: as §3

P. vulgaris DSM-2140 = assay: MIC, microbroth dilution susceptibility assay; assay type: cell-based; settings: large panel, Table 2a
How it was run: as §3

S. aureus Newman = assay: MIC, microbroth dilution susceptibility assay; assay type: cell-based; settings: small panel, Tables 1a/1b
How it was run: as §3

E. faecalis ATCC-29212 = assay: MIC, microbroth dilution susceptibility assay; assay type: cell-based; settings: large panel, Table 2a; TSB
How it was run: as §3

A. baumannii DSM-30008 = assay: MIC, microbroth dilution susceptibility assay; assay type: cell-based; settings: large panel, Table 2a
How it was run: as §3

E. coli WT DSM-1116 = assay: MIC, microbroth dilution susceptibility assay; assay type: cell-based; settings: small panel, Tables 1a/1b; no visual growth after approx. 16 h
How it was run: as §3

S. marcescens DSM-30121 = assay: MIC, microbroth dilution susceptibility assay; assay type: cell-based; settings: large panel, Table 2a
How it was run: as §3

P. aeruginosa DSM-24600 = assay: MIC, microbroth dilution susceptibility assay; assay type: cell-based; settings: large panel, Table 2a
How it was run: as §3

[2] = system: E. coli WT-III [marRΔ74bp]; assay type: cell-based; settings: fluoroquinolone-resistant mutant; Table 2a
Procedure: as §1, §2

CO[C@@H](C(N)=O)[C@H](NC(=O)c1ccc(NC(=O)c2ccc([N+](=O)[O-])cc2)cc1)C(=O)Nc1ccc(C(=O)Nc2ccc(C(=O)Nc3ccc(C(=O)O)cc3)c(O)c2OC(C)C)cc1 [Cys861-2, reference compound]
0.25 µg/mL: MIC P. vulgaris (P. vulgaris) | MIC S. aureus ATCC-29213 (S. aureus ATCC-29213) | MIC P. vulgaris DSM-2140 (P. vulgaris DSM-2140)
4 µg/mL: MIC P. aeruginosa ESBL 1 (P. aeruginosa ESBL 1)
6.66: pIC50 (E. coli gyrase)
0.06 µg/mL: MIC C. freundii DSM-30039 (C. freundii DSM-30039) | MIC E. coli WT (E. coli WT; larger panel, Table 2b) | MIC S. pneumoniae DSM-20566 (S. pneumoniae DSM-20566)
32 µg/mL: MIC P. mirabilis (P. mirabilis)
0.125 µg/mL: MIC C. freundii (C. freundii) | MIC E. coli ΔtolC (E. coli ΔtolC) | MIC E. coli WT DSM-1116 (E. coli WT DSM-1116)
64 µg/mL: MIC E. cloacae DSM-30054 (E. cloacae DSM-30054) | MIC S. marcescens DSM-30121 (S. marcescens DSM-30121)
2 µg/mL: MIC P. aeruginosa ESBL 2 (P. aeruginosa ESBL 2) | MIC P. aeruginosa WT PA14 (P. aeruginosa WT PA14) | MIC P. aeruginosa DSM-46316 (P. aeruginosa DSM-46316)
1 µg/mL: MIC A. baumannii (A. baumannii) | MIC E. faecalis (E. faecalis) | MIC E. faecalis ATCC-29212 (E. faecalis ATCC-29212) | MIC P. aeruginosa DSM-24600 (P. aeruginosa DSM-24600)
>64 µg/mL: MIC S. marcescens (S. marcescens) | MIC K. pneumoniae (K. pneumoniae) | MIC E. cloacae (E. cloacae) | MIC E. aerogenes (E. aerogenes) | MIC E. aerogenes DSM-30053 (E. aerogenes DSM-30053) | MIC K. pneumoniae DSM-30104 (K. pneumoniae DSM-30104) | MIC P. mirabilis DSM-2140 (P. mirabilis DSM-2140)
0.13 µg/mL: MIC E. coli WT (E. coli WT; large panel, Table 2a)
0.5 µg/mL: MIC S. epidermidis (S. epidermidis) | MIC E. coli WT-3 [gyrA(S83L, D87G)] ([1]; fluoroquinolone-resistant mutant, Table 2a) | MIC E. coli WT-3 [gyrA(S83L, D87G)] ([1]; larger panel, Table 2b) | MIC P. aeruginosa ΔmexAB (P. aeruginosa ΔmexAB) | MIC S. epidermidis DSM-28765 (S. epidermidis DSM-28765) | MIC S. aureus Newman (S. aureus Newman) | MIC A. baumannii DSM-30008 (A. baumannii DSM-30008) | MIC E. coli WT-III [marRΔ74bp] [2]
